Results from PubChem BioAssay (NCI).
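Each compound was tested at five concentrations against cells in 96-well plates for 48 hours. Abbreviation: GI50, concentration required for 50% inhibition of growth. TGI marks complete inhibition of growth.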

Assays:
Assay in all cases: inhibition of tumour cell growth, NCI panel, 48 h
U251 CNS = tested on: U251 CNS
786-0 renal = tested on: 786-0 renal
SK-MEL-2 melanoma = tested on: SK-MEL-2 melanoma
SF-268 CNS = tested on: SF-268 CNS
UACC-62 melanoma = tested on: UACC-62 melanoma
HCT-15 colon = tested on: HCT-15 colon
OVCAR-5 ovarian = tested on: OVCAR-5 ovarian
M14 melanoma = tested on: M14 melanoma
OVCAR-8 ovarian = tested on: OVCAR-8 ovarian
SNB-19 CNS = tested on: SNB-19 CNS
NCI-H522 lung = tested on: NCI-H522 lung
CAKI-1 renal = tested on: CAKI-1 renal
COLO 205 colon = tested on: COLO 205 colon
NCI/ADR-RES ovarian = tested on: NCI/ADR-RES ovarian
SNB-75 CNS = tested on: SNB-75 CNS
UO-31 renal = tested on: UO-31 renal
OVCAR-4 ovarian = tested on: OVCAR-4 ovarian
SK-MEL-5 melanoma = tested on: SK-MEL-5 melanoma
IGROV1 ovarian = tested on: IGROV1 ovarian
TK-10 renal = tested on: TK-10 renal
MCF7 breast = tested on: MCF7 breast
EKVX NSCLC = tested on: EKVX NSCLC
MDA-MB-231 breast = tested on: MDA-MB-231 breast
HCC-2998 colon = tested on: HCC-2998 colon
LOX IMVI melanoma = tested on: LOX IMVI melanoma
HL-60(TB) leukemia = tested on: HL-60(TB) leukemia
NCI-H460 lung = tested on: NCI-H460 lung
T-47D breast = tested on: T-47D breast
HCT-116 colon = tested on: HCT-116 colon
KM12 colon = tested on: KM12 colon
HOP-62 NSCLC = tested on: HOP-62 NSCLC
SK-MEL-28 melanoma = tested on: SK-MEL-28 melanoma
A549 NSCLC = tested on: A549 NSCLC
HOP-92 NSCLC = tested on: HOP-92 NSCLC
SW-620 colon = tested on: SW-620 colon
HS 578T breast = tested on: HS 578T breast
SR leukemia = tested on: SR leukemia
RXF 393 renal = tested on: RXF 393 renal
PC-3 prostate = tested on: PC-3 prostate
MOLT-4 leukemia = tested on: MOLT-4 leukemia
MALME-3M melanoma = tested on: MALME-3M melanoma
SF-295 CNS = tested on: SF-295 CNS
UACC-257 melanoma = tested on: UACC-257 melanoma
SN12C renal = tested on: SN12C renal
RPMI-8226 leukemia = tested on: RPMI-8226 leukemia
OVCAR-3 ovarian = tested on: OVCAR-3 ovarian
CCRF-CEM leukemia = tested on: CCRF-CEM leukemia
MDA-MB-435 = tested on: MDA-MB-435
BT-549 breast = tested on: BT-549 breast
HT29 colon = tested on: HT29 colon
NCI-H23 lung = tested on: NCI-H23 lung
SF-539 CNS = tested on: SF-539 CNS
SK-OV-3 ovarian = tested on: SK-OV-3 ovarian
NCI-H226 lung = tested on: NCI-H226 lung
ACHN renal = tested on: ACHN renal
K-562 leukemia = tested on: K-562 leukemia
DU-145 prostate = tested on: DU-145 prostate

## CC1=C2C(=O)[C@](C)(CO)C=C2C(=O)[C@](C)(O)C12CC2
U251 CNS
  GI50: 2.52 µM
  TGI: 7.48 µM
786-0 renal
  GI50: 2.1 µM
  TGI: 4.92 µM
SK-MEL-2 melanoma
  GI50: 2.39 µM
  TGI: 5.2 µM
SF-268 CNS
  GI50: 2.49 µM
  TGI: 7.05 µM
UACC-62 melanoma
  GI50: 1.88 µM
  TGI: 3.89 µM
HCT-15 colon
  GI50: 2.08 µM
  TGI: 4.92 µM
OVCAR-5 ovarian
  GI50: 2.53 µM
  TGI: 6.67 µM
M14 melanoma
  GI50: 1.8 µM
  TGI: 3.56 µM
OVCAR-8 ovarian
  GI50: 2.62 µM
  TGI: 8.31 µM
SNB-19 CNS
  GI50: 3.05 µM
  TGI: 10.5 µM
NCI-H522 lung
  GI50: 2.04 µM
  TGI: 4.31 µM
CAKI-1 renal
  GI50: 1.63 µM
  TGI: 3.07 µM
COLO 205 colon
  GI50: 2.47 µM
  TGI: 6.4 µM
NCI/ADR-RES ovarian
  GI50: 1.89 µM
  TGI: 4.02 µM
SNB-75 CNS
  GI50: 1.26 µM
  TGI: 3.94 µM
UO-31 renal
  GI50: 1.66 µM
  TGI: 3.17 µM
OVCAR-4 ovarian
  GI50: 1.91 µM
  TGI: 3.36 µM
SK-MEL-5 melanoma
  GI50: 1.81 µM
  TGI: 3.29 µM
IGROV1 ovarian
  GI50: 2.4 µM
  TGI: 6.47 µM
TK-10 renal
  GI50: 2.23 µM
  TGI: 5.63 µM
MCF7 breast
  GI50: 1.47 µM
  TGI: 3.16 µM
EKVX NSCLC
  GI50: 3.05 µM
  TGI: 10.2 µM
MDA-MB-231 breast
  GI50: 1.98 µM
  TGI: 3.99 µM
HCC-2998 colon
  GI50: 1.72 µM
  TGI: 3.33 µM
LOX IMVI melanoma
  GI50: 1.72 µM
  TGI: 3.3 µM
HL-60(TB) leukemia
  GI50: 2.46 µM
  TGI: 6.21 µM
NCI-H460 lung
  GI50: 2.49 µM
  TGI: 7.21 µM
T-47D breast
  GI50: 2.33 µM
  TGI: 6.42 µM
HCT-116 colon
  GI50: 1.82 µM
  TGI: 3.84 µM
KM12 colon
  GI50: 2.23 µM
  TGI: 5 µM
HOP-62 NSCLC
  GI50: 3.2 µM
  TGI: 11.6 µM
SK-MEL-28 melanoma
  GI50: 2.06 µM
  TGI: 4.19 µM
A549 NSCLC
  GI50: 2.91 µM
  TGI: 9.46 µM
HOP-92 NSCLC
  GI50: 2.12 µM
  TGI: 4.45 µM
SW-620 colon
  GI50: 1.86 µM
  TGI: 3.96 µM
HS 578T breast
  GI50: 2.01 µM
  TGI: 5 µM
SR leukemia
  GI50: 2.52 µM
  TGI: 17.7 µM
RXF 393 renal
  GI50: 1.88 µM
  TGI: 3.52 µM
PC-3 prostate
  GI50: 2.83 µM
  TGI: 9.03 µM
MOLT-4 leukemia
  GI50: 3.23 µM
  TGI: 13.1 µM
MALME-3M melanoma
  GI50: 1.86 µM
  TGI: 3.52 µM
SF-295 CNS
  GI50: 2.22 µM
  TGI: 5.2 µM
UACC-257 melanoma
  GI50: 2.59 µM
  TGI: 7.35 µM
SN12C renal
  GI50: 2.19 µM
  TGI: 5.62 µM
RPMI-8226 leukemia
  GI50: 2.28 µM
  TGI: 5.63 µM
OVCAR-3 ovarian
  GI50: 1.8 µM
  TGI: 3.26 µM
CCRF-CEM leukemia
  GI50: 3.08 µM
  TGI: 13.8 µM
MDA-MB-435
  GI50: 1.84 µM
  TGI: 3.41 µM
BT-549 breast
  GI50: 1.75 µM
  TGI: 3.6 µM
HT29 colon
  GI50: 3.25 µM
  TGI: 11.8 µM
NCI-H23 lung
  GI50: 1.84 µM
  TGI: 3.57 µM
SF-539 CNS
  GI50: 1.82 µM
  TGI: 3.54 µM
SK-OV-3 ovarian
  GI50: 3.36 µM
  TGI: 10.9 µM
NCI-H226 lung
  GI50: 2.18 µM
  TGI: 5.71 µM
ACHN renal
  GI50: 1.86 µM
  TGI: 3.56 µM
K-562 leukemia
  GI50: 3.47 µM
  TGI: > 100 µM
DU-145 prostate
  GI50: 2.2 µM
  TGI: 4.89 µM
